Molecular target: T1, PAR4 (Homo sapiens, UniProt Q96RI0)
T1 construct: expressed in transfected cells; host or cells: HEK293 PAR4 Clone 1.2A (BMS Arctic ID 383940)
T1 sequence (Q96RI0 18-385): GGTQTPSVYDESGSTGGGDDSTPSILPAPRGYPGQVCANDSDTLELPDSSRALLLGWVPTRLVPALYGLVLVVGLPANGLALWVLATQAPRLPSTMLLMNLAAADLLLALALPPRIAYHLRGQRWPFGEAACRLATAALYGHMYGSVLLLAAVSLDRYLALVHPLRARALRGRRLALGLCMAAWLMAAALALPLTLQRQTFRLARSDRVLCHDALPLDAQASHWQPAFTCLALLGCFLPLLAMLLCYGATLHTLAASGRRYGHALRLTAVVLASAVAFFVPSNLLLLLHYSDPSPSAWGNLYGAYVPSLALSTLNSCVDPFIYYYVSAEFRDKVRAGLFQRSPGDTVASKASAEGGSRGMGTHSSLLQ
Assay: PAR4 FLIPR assay (antagonism of agonist peptide-induced calcium mobilization)
Type: cell-based
Excerpt: The FLIPR assay is an exemplary in vitro assay for measuring the activity of the PAR4 antagonists of the present invention. In this assay, intracellular calcium mobilization is induced in PAR4 expressing cells by a PAR4 agonist and calcium mobilization is monitored.
HEK293 cells stably expressing PAR4 were generated by a standard method of transfection of human PAR4 (F2R23) cDNA expression vector and selected based on PAR4 protein expression or mRNA expression. […] These cells also express endogenous PAR1 and can elicit calcium signal upon stimulation with PAR1 agonist peptide. Therefore, the same cells were also used to determine selectivity against PAR1 and agonist activity for both receptors. Cells from HEK293 PAR4 Clone 1.2A (BMS Arctic ID 383940) were propagated and used for calcium mobilization studies.
FLIPR-based calcium mobilization assay in HEK293 cells was used to measure PAR4 antagonism, agonism, and selectivity against PAR1. The activity of the PAR4 antagonists of the present invention were tested in PAR4 expressing cells by monitoring H-Ala-Phe(4-F)-Pro-Gly-Trp-Leu-Val-Lys-Asn-Gy-NH2-induced intracellular calcium mobilization. Counter screens for agonist activity and PAR1 antagonist activity were also performed. Briefly, PAR1/PAR4-expressing HEK293 cells were grown in DMEM (Life Technology, Grand Island, NY) containing 10% heat-inactivated FBS, 1% Penicillin-Streptomycin, 10 μg/mL blasticidin, and 100 μg/mL Zeocin at 37° C. with 5% CO2. Cells were plated overnight prior to the experiment in a black 384-well Purecoat Amine clear bottom plate (Becton Dickinson Biosciences, San Jose, CA) at 10,000 cells/well in 30 μL growth medium and incubated in a humidified chamber at 37° C. with 5% CO2 overnight. Prior to compound addition, the cell medium was replaced with 40 μL of 1× calcium and magnesium-containing Hank's Balanced Saline Solution (HBSS) (with 20 mM HEPES) and 1:1000 diluted fluorescent calcium indicator (Codex Biosolutions, Gaithersburg, MD). After a 30 minute incubation period at 37° C. and a further 30 minute incubation and equilibration period at room temperature, 20 μL test compound (diluted in 1×HBSS buffer) was added at various concentrations at 0.17% dimethyl sulfoxide (DMSO) final concentration. Changes in fluorescence intensity were measured using a Functional Drug Screening System (FDSS, Hamamatsu, Japan) to determine agonist activities. The cells were then incubated for 30 minutes at room temperature followed by addition of 20 μL of agonist peptide for antagonist activity measurement. […] Compound potency was derived from 11-point concentration-response curves.

| SMILES | IC50 [nM] |
| --- | --- |
| COc1cnc2c(-c3cc4c5c(cc(C)c4o3)O[C@@H](COC(=O)Nc3ccnc(C)c3)CO5)cc(C)cc2n1 [Example 15, (R)-(8-(2-methoxy-7-methylquinoxalin-5-yl)-6-methyl-2,3-dihydro-[1,4]dioxino[2,3-e]benzofuran-3-yl)methyl (2-methylpyridin-4-yl)carbamate] | 3.2 |
| COc1ccc(NC(=O)OC[C@H]2COc3c(cc(C)c4oc(-c5cc(C)cc6nc(OC)cnc56)cc34)O2)cn1 [Example 16, (R)-(8-(2-methoxy-7-methylquinoxalin-5-yl)-6-methyl-2,3-dihydro-[1,4]dioxino[2,3-e]benzofuran-3-yl)methyl (6-methoxypyridin-3-yl)carbamate] | 3 |
| COc1cnc2c(-c3nc4c(Cl)cc5c(c4s3)CC(COC(=O)Nc3cccnc3)O5)cc(C)cc2n1 (stereo not drawn) [Example 18, (4-chloro-2-(2-methoxy-7-methylquinoxalin-5-yl)-7,8-dihydrobenzofuro[5,4-d]thiazol-7-yl)methyl pyridin-3-ylcarbamate] | 5.7 |
| COc1cnc2c(-c3nc4c(Cl)cc5c(c4s3)CC(COC(=O)Nc3ccc(C)nc3)O5)cc(C)cc2n1 (stereo not drawn) [Example 19, (4-chloro-2-(2-methoxy-7-methylquinoxalin-5-yl)-7,8-dihydrobenzofuro[5,4-d]thiazol-7-yl)methyl (6-methylpyridin-3-yl)carbamate] | 2.6 |
| Cc1cc(-c2nc3c(F)cc4c(c3s2)OCC(CNC(=O)OC(C)(C)C)O4)c2ncc(OC(F)F)nc2c1 (stereo not drawn) [Example 21, tert-butyl ((2-(2-(difluoromethoxy)-7-methylquinoxalin-5-yl)-4-fluoro-7,8-dihydro-[1,4]dioxino[2′,3′:3,4]benzo[1,2-d]thiazol-7-yl)methyl)carbamate] | 10 |
| COc1cnc2c(-c3nc4c(F)cc5c(c4s3)OC(COC(=O)Nc3ccccc3)CO5)cc(C)cc2n1 (stereo not drawn) [Example 24, (4-fluoro-2-(2-methoxy-7-methylquinoxalin-5-yl)-7,8-dihydro-[1,4]dioxino[2′,3′:3,4]benzo[1,2-d]thiazol-8-yl)methyl phenylcarbamate] | 9 |
| COc1cnc2c(-c3nc4c(Cl)cc5c(c4s3)OC[C@H](COC(=O)Nc3ccccc3)O5)cc(C)cc2n1 [Example 26, (R)-(4-chloro-2-(2-methoxy-7-methylquinoxalin-5-yl)-7,8-dihydro-[1,4]dioxino[2′,3′:3,4]benzo[1,2-d]thiazol-7-yl)methyl phenylcarbamate] | 10 |
| COc1cnc2c(-c3nc4c(Cl)cc5c(c4s3)OC[C@H](COC(=O)Nc3cccc(C#N)c3)O5)cc(C)cc2n1 [Example 27, (R)-(4-chloro-2-(2-methoxy-7-methylquinoxalin-5-yl)-7,8-dihydro-[1,4]dioxino[2′,3′:3,4]benzo[1,2-d]thiazol-7-yl)methyl (3-cyanophenyl)carbamate] | 2.2 |
| COc1cnc2c(-c3nc4c(Cl)cc5c(c4s3)OC[C@H](COC(=O)Nc3cncc(F)c3)O5)cc(C)cc2n1 [Example 28, (R)-(4-chloro-2-(2-methoxy-7-methylquinoxalin-5-yl)-7,8-dihydro-[1,4]dioxino[2′,3′:3,4]benzo[1,2-d]thiazol-7-yl)methyl (5-fluoropyridin-3-yl)carbamate] | 480 |
| COc1cnc2c(-c3nc4c(Cl)cc5c(c4s3)OC[C@H](COC(=O)Nc3ccncc3)O5)cc(C)cc2n1 [Example 30, (R)-(4-chloro-2-(2-methoxy-7-methylquinoxalin-5-yl)-7,8-dihydro-[1,4]dioxino[2′,3′:3,4]benzo[1,2-d]thiazol-7-yl)methyl pyridin-4-ylcarbamate] | 3.6 |
| COc1cnc2c(-c3nc4c(Cl)cc5c(c4s3)OC[C@H](COC(=O)Nc3cccnc3)O5)cc(C)cc2n1 [Example 31, (R)-(4-chloro-2-(2-methoxy-7-methylquinoxalin-5-yl)-7,8-dihydro-[1,4]dioxino[2′,3′:3,4]benzo[1,2-d]thiazol-7-yl)methyl pyridin-3-ylcarbamate] | 0.9 |
| COc1cnc2c(-c3nc4c(Cl)cc5c(c4s3)OC[C@H](COC(=O)Nc3ccnnc3)O5)cc(C)cc2n1 [Example 34, (R)-(4-chloro-2-(2-methoxy-7-methylquinoxalin-5-yl)-7,8-dihydro-[1,4]dioxino[2′,3′:3,4]benzo[1,2-d]thiazol-7-yl)methyl pyridazin-4-ylcarbamate] | 3.3 |
| COc1cnc2c(-c3nc4c(Cl)cc5c(c4s3)OC[C@H](COC(=O)Nc3ccc(C#N)nc3)O5)cc(C)cc2n1 [Example 35, (R)-(4-chloro-2-(2-methoxy-7-methylquinoxalin-5-yl)-7,8-dihydro-[1,4]dioxino[2′,3′:3,4]benzo[1,2-d]thiazol-7-yl)methyl (6-cyanopyridin-3-yl)carbamate] | 1.4 |

Now from value to compound:

| IC50 [nM] | SMILES |
| --- | --- |
| 3.1 | COc1ccc(NC(=O)OCC2Cc3c(cc(Cl)c4nc(-c5cc(C)cc6nc(OC)cnc56)sc34)O2)cn1 (stereo not drawn) [Example 17, (4-chloro-2-(2-methoxy-7-methylquinoxalin-5-yl)-7,8-dihydrobenzofuro[5,4-d]thiazol-7-yl)methyl (6-methoxypyridin-3-yl)carbamate] |
| 8.8 | Cc1cc(-c2nc3c(F)cc4c(c3s2)OC(CO)CO4)c2ncc(OC(F)F)nc2c1 (stereo not drawn) [Example 22, (2-(2-(difluoromethoxy)-7-methylquinoxalin-5-yl)-4-fluoro-7,8-dihydro-[1,4]dioxino[2′,3′:3,4]benzo[1,2-d]thiazol-8-yl)methanol] |
| 9.4 | Cc1cc(-c2nc3c(F)cc4c(c3s2)OC(CNC(=O)OC(C)(C)C)CO4)c2ncc(OC(F)F)nc2c1 (stereo not drawn) [Example 23, tert-butyl ((2-(2-(difluoromethoxy)-7-methylquinoxalin-5-yl)-4-fluoro-7,8-dihydro-[1,4]dioxino[2′,3′:3,4]benzo[1,2-d]thiazol-8-yl)methyl)carbamate] |
| 25 | COc1cnc2c(-c3nc4c(Cl)cc5c(c4s3)OC[C@H](COC(=O)Nc3cncc(Cl)c3)O5)cc(C)cc2n1 [Example 25, (R)-(4-chloro-2-(2-methoxy-7-methylquinoxalin-5-yl)-7,8-dihydro-[1,4]dioxino[2′,3′:3,4]benzo[1,2-d]thiazol-7-yl)methyl (5-chloropyridin-3-yl)carbamate] |
| 2.9 | COc1cnc2c(-c3nc4c(Cl)cc5c(c4s3)OC[C@H](COC(=O)Nc3ccc(F)nc3)O5)cc(C)cc2n1 [Example 29, (R)-(4-chloro-2-(2-methoxy-7-methylquinoxalin-5-yl)-7,8-dihydro-[1,4]dioxino[2′,3′:3,4]benzo[1,2-d]thiazol-7-yl)methyl (6-fluoropyridin-3-yl)carbamate] |
| 1.8 | COc1cnc2c(-c3nc4c(Cl)cc5c(c4s3)OC[C@H](COC(=O)Nc3ccc(Cl)nc3)O5)cc(C)cc2n1 [Example 32, (R)-(4-chloro-2-(2-methoxy-7-methylquinoxalin-5-yl)-7,8-dihydro-[1,4]dioxino[2′,3′:3,4]benzo[1,2-d]thiazol-7-yl)methyl (6-chloropyridin-3-yl)carbamate] |
| 2.8 | COc1cnc2c(-c3nc4c(Cl)cc5c(c4s3)OC[C@H](COC(=O)Nc3ccnc(C)c3)O5)cc(C)cc2n1 [Example 33, (R)-(4-chloro-2-(2-methoxy-7-methylquinoxalin-5-yl)-7,8-dihydro-[1,4]dioxino[2′,3′:3,4]benzo[1,2-d]thiazol-7-yl)methyl (2-methylpyridin-4-yl)carbamate] |
| 1.7 | COc1cc(NC(=O)OC[C@H]2COc3c(cc(Cl)c4nc(-c5cc(C)cc6nc(OC)cnc56)sc34)O2)ccn1 [Example 36, (R)-(4-chloro-2-(2-methoxy-7-methylquinoxalin-5-yl)-7,8-dihydro-[1,4]dioxino[2′,3′:3,4]benzo[1,2-d]thiazol-7-yl)methyl (2-methoxypyridin-4-yl)carbamate] |
